Data from ChEMBL document CHEMBL1201862, “PubChem BioAssay data set” (2004).
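The compound was tested at five concentrations on cells cultured in 96-well plates, with a 48-hour exposure period. At the GI50, growth is halved.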 The source made the active and inactive calls. No stated cut-off is given here; in the data, active = GI50 up to about 1.1 µM and inactive = higher.

Tests used:
Assay in all cases: DTP human tumour cell line panel, 48 h
SNB-19 = system: SNB-19
OVCAR-3 = system: OVCAR-3
HCT-116 = system: HCT-116
Malme-3M = system: Malme-3M
OVCAR-4 = system: OVCAR-4
UACC-257 = system: UACC-257
HOP-62 = system: HOP-62
TK-10 = system: TK-10
M14 = system: M14
HOP-92 = system: HOP-92
NCI-H226 = system: NCI-H226
SF-268 = system: SF-268
MCF7 = system: MCF7
CAKI-1 = system: CAKI-1
NCI-H23 = system: NCI-H23
RXF 393 = system: RXF 393
HCT-15 = system: HCT-15
SW-620 = system: SW-620
SK-OV-3 = system: SK-OV-3
HL-60 = system: HL-60

O=C1CC(=O)c2c(O)cc(O)c(c2O)-c2c(ccc(O)c2O)C2=CC(=O)c3c(O)cc(O)c(c3O2)-c2c1ccc(O)c2O.O=C1CC2(O)Oc3c1c(O)cc(O)c3-c1c(ccc(O)c1O)-c1cc(=O)c3c(O)cc(O)c(c3o1)-c1c2ccc(O)c1O
GI50 (SNB-19): > 50 µM (inactive) | GI50 (OVCAR-3): > 50 µM (inactive) | GI50 (HCT-116): > 50 µM (inactive) | GI50 (Malme-3M): > 50 µM (inactive) | GI50 (OVCAR-4): > 50 µM (inactive) | GI50 (UACC-257): > 50 µM (inactive) | GI50 (HOP-62): > 50 µM (inactive) | GI50 (TK-10): > 50 µM (inactive) | GI50 (M14): > 50 µM (inactive) | GI50 (HOP-92): > 50 µM (inactive) | GI50 (NCI-H226): > 50 µM (inactive) | GI50 (SF-268): > 50 µM (inactive) | GI50 (MCF7): > 50 µM (inactive) | GI50 (CAKI-1): > 50 µM (inactive) | GI50 (NCI-H23): > 50 µM (inactive) | GI50 (RXF 393): > 50 µM (inactive) | GI50 (HCT-15): > 50 µM | GI50 (SW-620): > 50 µM (inactive) | GI50 (SK-OV-3): > 50 µM (inactive) | GI50 (HL-60): > 50 µM (inactive)
